Assay results taken from ChEMBL document CHEMBL1147302, “Isolation and characterization of an antimalarial agent of the neem tree Azadirachta indica” (J Nat Prod, 1989).

Experiments:
Plasmodium falciparum [1] = experiment: Antimalarial activity against Plasmodium falciparum after 48 hrs by [3H]hypoxanthine uptake; type: functional, organism-based
Plasmodium falciparum [2] = experiment: Antimalarial activity against Plasmodium falciparum after 96 hrs by [3H]hypoxanthine uptake; type: functional, organism-based

## CC(=O)O[C@@H]1C[C@H]2C(C)(C)C(=O)C=C[C@]2(C)[C@H]2CC[C@@]3(C)[C@H](c4ccoc4)OC(=O)[C@H]4O[C@]43[C@@]21C [GEDUNIN]
Plasmodium falciparum [1]
  IC50: 1000 nM
Plasmodium falciparum [2]
  IC50: 300 nM
